Results from patent US9370522B2, “Heterocyclic compounds for the inhibition of PASK” (BioEnergenix, LLC, priority 2009, dated 2016).
pIC50: −log10 of the molar value.

Legend:
[1] = molecular target: T1, PASK (Invitrogen) Kinase Domain (Homo sapiens, UniProt Q96RG2); experiment: PASK TR-FRET assay (Ulight-peptide, Eu chelate antibody); type: biochemical; conditions: TR-FRET 665 nm/615 nm, 2 hours at 25° C.
T1 construct: IC50 Kinase Domain; purchased Invitrogen
Source text: The aim of the FRET assay is to determine the inhibition potential of test compounds on targeted kinase. This assay platform provides a homogenous screening method for measuring kinase activity by quantitating the amount of phospho-substrate in solution following a kinase reaction.
In the presence of kinase and ATP, the Ulight-peptide is phosphorylated and captured by an anti-phospho-substrate antibody, which brings the Eu chelate donor and Ulight acceptor dyes into close proximity. Upon excitation at 340 nm, the Eu chelate transfers its energy to the Ulight dye, resulting in a fluorescent light emission at 665 nm.
Titration of Kinase at 1 mM ATP was achieved via the following protocol. After making serial three-fold dilutions of PASK (Invitrogen) in reaction buffer across the plate; 5 μl of kinase dilution and 5 μl substrate/ATP mix were added to the wells of the white Optiplate-384 (PerkinElmer). The contents of the plate were and incubated at RT for 1 h. The reaction was stopped by adding 5 μl of stop solution to each test well followed by mixing and incubation at RT for 10 minutes. 5 μl of detection mix (detection antibody diluted in detection buffer) was added; the contents of the plate were mixed and then incubated in the dark for 1 hour at RT. The signal was recorded at TR-FRET mode (665 nm/615 nm). The results were graphed to calculate the EC50.
Titration of ATP at the EC50 Concentration of Kinase to determine ATP Km,app. was performed using the following method. After making serial dilutions of ATP (Invitrogen), 5 μl of ATP dilution and 5 μl substrate/kinase mix were added to the wells of the white Optiplate-384 (PerkinElmer). The contents of the plate were and incubated at RT for 1 h. The reaction was stopped by adding 5 μl of stop solution to each test well followed by mixing and incubation at RT for 10 minutes. 5 μl of detection mix (detection antibody diluted in detection buffer) was added; the contents of the plate were mixed and then incubated in the dark for 1 hour at RT. The signal was recorded at TR-FRET mode (665 nm/615 nm). The results were graphed to calculate the EC50 as the ATP Km,app.
Compound screening was done via the following method. 10 mM stock solution of test compound in DMSO was prepared by dissolving test compound in DMSO at RT for 1 hour, and then sonicating at 100% output for 8 minutes. If compound is not soluble under this condition, it was diluted to 3 mM. Kinase reaction buffer was prepared containing 10 mM MgCl2, 50 mM HEPES, 1 mM EGTA, 0.01% TWEEN-20, 2 mM DTT. […] The signal was recorded at TR-FRET mode (665 nm/615 nm).

hPASK Kinase Domain = molecular target: T2, hPASK Kinase Domain (Homo sapiens, UniProt Q96RG2); experiment: Biochemical Assay for hPASK Activity (Kinase-Glo Luminescent Kinase Assay), kinase domain
T2 construct: made in house; host or cells: insect cells
T2 sequence (Q96RG2 999-1251 limits assumed): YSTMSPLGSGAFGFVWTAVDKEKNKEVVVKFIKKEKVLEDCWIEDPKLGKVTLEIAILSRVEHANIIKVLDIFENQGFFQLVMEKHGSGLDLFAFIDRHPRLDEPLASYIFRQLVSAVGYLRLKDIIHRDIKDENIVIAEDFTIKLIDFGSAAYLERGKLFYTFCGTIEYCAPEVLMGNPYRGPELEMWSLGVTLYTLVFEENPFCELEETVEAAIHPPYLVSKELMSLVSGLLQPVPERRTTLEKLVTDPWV
Description: (§1) The assay for purified hPASK activity utilizes the Kinase-Glo Luminescent Kinase Assay (Promega), which quantifies the amount of ATP remaining in solution following kinase reaction. The assay is carried out in a 96-well plate format and is performed by adding a volume of Kinase-Glo Reagent (Promega, catalog #V3771) equal to the volume of solution in the well of a completed kinase reaction. Kinase-Glo reagent contains Luciferase and its substrate. After addition to a kinase reaction it allows to measure luminescence. The amount of ATP left in solution at the time of Kinase-Glo Plus addition is directly proportional to the luminescence that is measured in each well, and inversely correlated with kinase activity.
(§2) Purified hPASK from insect cells (0.02 μg) is added to a 50 μL reaction mix containing 40 mM Hepes (pH 7.0), 100 mM KCl, 5 mM MgCl2, 1 mM DTT and 1 ug of MBP protein. Inhibitory compounds are then added and the mixture is incubated for 10 min at 25° C. before adding 5 μL of ATP (at desired concentration). The reaction is allowed to proceed at 25° C. for 1 hour before adding 50 μL of Kinase-Glo reagent. The luminescence is measured as soon as 10 minutes after Kinase-Glo reagent is added.

PASK = molecular target: T3, PASK (UniProt #Q96RG2; human recombinant N-terminal GST tagged construct, residues 879-1323) (Homo sapiens, UniProt Q96RG2); experiment: 33P-ATP radiometric PASK kinase assay (P81 phosphocellulose, scintillation counting); type: biochemical; conditions: Table 2, Myelin Basic Protein 20 μM, 120 min room temperature, average of all trials, read-out: IC50 Kinase Domain
T3 construct: N-terminal GST tagged construct, residues 879-1323; GST (N); made in house; host or cells: insect cells
T3 sequence (Q96RG2 879-1323, stated change not applied): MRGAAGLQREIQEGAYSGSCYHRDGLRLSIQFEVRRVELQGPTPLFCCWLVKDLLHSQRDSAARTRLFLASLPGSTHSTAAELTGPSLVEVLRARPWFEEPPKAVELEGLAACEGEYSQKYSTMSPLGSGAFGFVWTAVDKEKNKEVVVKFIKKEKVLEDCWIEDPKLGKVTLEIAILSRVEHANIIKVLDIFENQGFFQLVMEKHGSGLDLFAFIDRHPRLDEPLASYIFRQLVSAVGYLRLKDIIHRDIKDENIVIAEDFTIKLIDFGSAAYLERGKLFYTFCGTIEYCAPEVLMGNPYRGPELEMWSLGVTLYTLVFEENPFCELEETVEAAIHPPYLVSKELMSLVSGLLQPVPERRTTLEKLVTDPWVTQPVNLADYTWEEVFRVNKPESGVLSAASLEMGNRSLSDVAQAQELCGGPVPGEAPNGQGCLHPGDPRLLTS
Description: Purified PASK (UniProt #Q96RG2; human recombinant N-terminal GST tagged construct, residues 879-1323) from insect cells (final concentration 5 nM) is added to freshly prepared Base Reaction Buffer containing 20 mM Hepes (pH 7.5), 10 mM MgCl2, 1 mM EGTA, 0.02% Brij35, 0.02 mg/ml BSA, 0.1 mM Na3VO4, 2 mM DTT, 1% DMSO and Myelin Basic Protein (20 μM final). Test compounds in DMSO are then added and the mixture, followed by delivery of ^33P-ATP (specific activity 0.01 μCi/μl final) to initiate the reaction. The kinase reaction is incubated for 120 min at room temperature. The entire reaction mixture is washed through onto a P81 Phosphocellulose paper and washed three times for 10 minutes in 75 mM phosphoric acid and once in methanol prior to drying and scintillation counting. When the assay was repeated for a given compound, the activity data is based on the average of all trials.

hPASK (Full Length) = molecular target: T4, hPASK (Full Length) (Homo sapiens, UniProt Q96RG2); experiment: Biochemical Assay for hPASK Activity (Kinase-Glo Luminescent Kinase Assay), full length; conditions: purified hPASK from insect cells, MBP substrate
T4 construct: made in house; host or cells: insect cells
T4 sequence (Q96RG2 whole entry): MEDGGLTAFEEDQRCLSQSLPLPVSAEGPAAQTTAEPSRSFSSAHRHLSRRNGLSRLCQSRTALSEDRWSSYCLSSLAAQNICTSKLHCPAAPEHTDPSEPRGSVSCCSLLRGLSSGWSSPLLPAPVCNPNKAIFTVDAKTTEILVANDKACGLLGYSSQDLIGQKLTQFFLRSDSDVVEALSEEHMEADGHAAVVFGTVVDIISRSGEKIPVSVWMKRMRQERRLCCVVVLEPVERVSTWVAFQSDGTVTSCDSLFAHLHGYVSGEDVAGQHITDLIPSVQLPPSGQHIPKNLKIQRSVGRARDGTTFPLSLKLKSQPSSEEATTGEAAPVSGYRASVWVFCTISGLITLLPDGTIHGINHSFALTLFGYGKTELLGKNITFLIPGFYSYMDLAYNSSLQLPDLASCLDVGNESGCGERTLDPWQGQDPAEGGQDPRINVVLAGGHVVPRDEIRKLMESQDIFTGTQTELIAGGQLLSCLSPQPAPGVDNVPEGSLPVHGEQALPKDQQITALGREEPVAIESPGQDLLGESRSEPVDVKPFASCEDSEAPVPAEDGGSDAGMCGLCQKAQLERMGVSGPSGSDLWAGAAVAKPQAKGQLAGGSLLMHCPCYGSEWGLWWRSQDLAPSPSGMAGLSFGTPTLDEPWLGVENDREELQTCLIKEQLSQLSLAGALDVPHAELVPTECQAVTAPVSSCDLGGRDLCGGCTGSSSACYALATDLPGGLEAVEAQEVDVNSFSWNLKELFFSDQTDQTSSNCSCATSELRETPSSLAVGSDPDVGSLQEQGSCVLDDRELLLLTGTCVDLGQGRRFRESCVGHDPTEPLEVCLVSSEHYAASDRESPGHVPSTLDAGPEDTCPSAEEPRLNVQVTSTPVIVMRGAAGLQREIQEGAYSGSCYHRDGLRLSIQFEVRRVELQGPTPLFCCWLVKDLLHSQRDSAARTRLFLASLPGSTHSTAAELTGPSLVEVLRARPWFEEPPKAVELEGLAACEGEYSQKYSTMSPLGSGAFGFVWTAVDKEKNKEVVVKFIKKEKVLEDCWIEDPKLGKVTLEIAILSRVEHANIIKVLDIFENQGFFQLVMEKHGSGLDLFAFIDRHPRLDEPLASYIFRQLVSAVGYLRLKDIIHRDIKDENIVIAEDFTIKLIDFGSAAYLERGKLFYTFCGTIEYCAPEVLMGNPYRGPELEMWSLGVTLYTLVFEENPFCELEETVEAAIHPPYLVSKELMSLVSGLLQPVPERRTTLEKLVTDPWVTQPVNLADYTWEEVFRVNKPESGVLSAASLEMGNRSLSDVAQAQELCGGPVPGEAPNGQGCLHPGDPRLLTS
Description: as §1, §2

[2] = Table 1, second part (Examples 33-59)

T1 sequence (Q96RG2 999-1251 limits assumed): as the sequence (Q96RG2 999-1251 limits assumed) above

pIC50 (hPASK Kinase Domain; [2])	pIC50 (hPASK (Full Length))	pIC50 (hPASK Kinase Domain; Table 1, first part)	Compound	further results
–	–	–	COc1ccc(-c2nc3cc(C(=O)O)ccc3cc2-c2ccccc2)cc1 [Example 60, 2-(4-Methoxyphenyl)-3-phenylquinoline-7-carboxylic acid]	pIC50 [1]: ≥ 5.00
≤ 5.00	–	–	CNS(=O)(=O)c1ccc2nc(-c3ccc(OC)cc3)c(-c3ccc(OC)cc3)nc2c1 [Example 54, 2,3-Bis(4-methoxyphenyl)-N-methylquinoxaline-6-sulfonamide]	–
≥ 5.00	–	–	CC(C)S(=O)(=O)Nc1ccc(-c2nc3cc(C(=O)O)ccc3nc2-c2ccccc2)cc1 [Example 52, 3-(4-(Isopropylsulfonamido)phenyl)-2-phenylquinoxaline-6-carboxylic acid]	pIC50 [1]: ≥ 5.00
≥ 5.00	–	–	CC(C)(C)c1ccc(-c2nc3cc(C(=O)O)ccc3nc2-c2ccccc2)cc1 [Example 33, 3-(4-tert-Butylphenyl)-2-phenylquinoxaline-6-carboxylic acid]	pIC50 [1]: ≥ 5.00; pIC50 (PASK): ≥ 5.00
–	≥ 5.00	≤ 5.00	Cc1ccc(-c2nc3ccc(C(=O)O)cc3nc2-c2ccc(C)cc2)cc1 [Example 7, 2,3-Di-(4-methylphenyl)quinoxaline-6-carboxylic acid]	–
–	≤ 5.00	≤ 5.00	COc1ccc(-c2nc3ccc(C(=O)O)cc3nc2-c2ccc(OC)c(OC)c2)cc1OC [Example 4, 2,3-Di-(3,4-dimethoxyphenyl)quinoxaline-6-carboxylic acid]	–
–	≥ 5.00	≥ 5.00	O=C(O)c1ccc2nc(-c3cccc(O)c3)c(-c3cccc(O)c3)nc2c1 [Example 1, 2,3-Di-(3-hydroxyphenyl)quinoxaline-6-carboxylic acid]	–
–	≤ 5.00	≤ 5.00	CCOc1ccc(-c2nc3ccc(C(=O)O)cc3nc2-c2ccc(OCC)cc2)cc1 [Example 11, 2,3-Di-(4-ethoxyphenyl)quinoxaline-6-carboxylic acid]	–
–	≤ 5.00	≤ 5.00	Cc1nc2cc(C(=O)O)c(O)cc2nc1-c1ccccc1 [Example 3, 7-Hydroxy-2-phenyl-3-methylquinoxaline-6-carboxylic acid]	–
–	≥ 5.00	≥ 5.00	O=C(O)c1ccc2nc(-c3ccccc3)c(-c3ccccc3)nc2c1 [Example 8, 2,3-Diphenylquinoxaline-6-carboxylic acid]	–
–	–	–	COc1ccc(-c2cc3cc(C(=O)O)ccc3nc2-c2ccc(OC)cc2)cc1 [Example 61, 2,3-Bis(4-methoxyphenyl)quinoline-6-carboxylic acid]	pIC50 [1]: ≥ 5.00
≥ 5.00	–	–	O=C(O)c1cccc(-c2nc3cc(C(=O)O)ccc3nc2-c2ccccc2)c1 [Example 50, 3-(3-Carboxyphenyl)-2-phenylquinoxaline-6-carboxylic acid]	–
≥ 5.00	–	–	COc1ccc(-c2nc3cccc(C(=O)O)c3nc2-c2ccc(OC)cc2)cc1 [Example 58, 2,3-Bis(4-methoxyphenyl)quinoxaline-5-carboxylic acid]	–
≥ 5.00	–	–	COc1ccc(-c2nc3ccc(S(N)(=O)=O)cc3nc2-c2ccc(OC)cc2)cc1 [Example 53, 2,3-Bis(4-methoxyphenyl)quinoxaline-6-sulfonamide]	–
–	≥ 5.00	≥ 5.00	O=C(O)c1ccc2nc(-c3ccco3)c(-c3ccco3)nc2c1 [Example 9, 2,3-Di-(2-furyl)quinoxaline-6-carboxylic acid]	–
≥ 5.00	–	–	CN(c1ccc(-c2nc3cc(C(=O)O)ccc3nc2-c2ccccc2)cc1)S(C)(=O)=O [Example 51, 3-(4-(N-Methylmethylsulfonamido)phenyl)-2-phenylquinoxaline-6-carboxylic acid]	–
≥ 5.00	–	–	COc1ccc(-c2nc3ccc(S(=O)(=O)N4CCOCC4)cc3nc2-c2ccc(OC)cc2)cc1 [Example 55, 2,3-Bis(4-methoxyphenyl)-6-(morpholinosulfonyl)quinoxaline]	–
–	≥ 5.00	≥ 5.00	O=C(O)c1cc2nc(-c3ccc4c(c3)OCO4)c(-c3ccc4c(c3)OCO4)nc2cc1O [Example 10, 2,3-Di-(3,4-methylenedioxyphenyl)quinoxaline-7-hydroxy-6-carboxylic acid]	–
–	≥ 5.00	≤ 5.00	O=C(O)c1ccc2nc(-c3ccc(F)cc3)c(-c3ccc(F)cc3)nc2c1 [Example 5, 2,3-Di-(4-fluorophenyl)quinoxaline-6-carboxylic acid]	–
≥ 5.00	–	–	CCc1ccc(-c2nc3ccc(C(=O)NOC)cc3nc2-c2ccc(CC)cc2)cc1 [Example 59, 2,3-Bis(4-ethylphenyl)-N-methoxyquinoxaline-6-carboxamide]	–
–	≥ 5.00	≥ 5.00	O=C(O)c1ccc2nc(-c3ccccc3O)c(-c3ccccc3O)nc2c1 [Example 2, 2,3-Di-(2-hydroxyphenyl)quinoxaline-6-carboxylic acid]	–
≤ 5.00	–	–	COc1ccc(-c2nc3ccc(/C=C/C(=O)O)cc3nc2-c2ccc(OC)cc2)cc1 [Example 56, (E)-3-(2,3-bis(4-methoxyphenyl)quinoxalin-6-yl)acrylic acid]	–
